# Literature values in US4242298A, “Polysaccharide ester membrane clearing process” (priority 1979, dated 1980).
# Like-named read-outs stand apart in the source and are kept apart here.
# Assays:
# rat [1] = conditions: inhalation
# rat [2] = conditions: oral
# rats [3] = conditions: 6 hours
# rats [4] = conditions: number of hours not given
# rats [5] = conditions: 2000 ppm, 8 hours
SMILES,LCLo (rat [1]; 4H) [ppm],LD50 (rat [2]) [mg/kg],further results
"CC(=O)O [Acetic Acid, reference compound]",1600,–,–
"O=C1CCCCC1 [Cyclohexanone, reference compound]",2000,1620,–
CCOCCO [2-ethoxyethanol],4000,3000,–
CCOCCOC(C)=O [2-ethoxyethyl acetate],–,5100,LCLo (rat [1]; 8H): 1500 ppm
COC(=O)CC(C)=O [methyl acetoacetate],–,3000,"animal's growth, following exposure (rats [3]; 1370 ppm (calculated)): normal; symptoms on exposure (rats [3]; 1370 ppm (calculated)): no symptoms; lethality on exposure to concentrated vapor (rats [4]): nonlethal"
CCOC(=O)CC(C)=O [ethyl acetoacetate],–,–,"animal's growth, following exposure (rats [3]; 1129 ppm (calculated)): normal; symptoms on exposure (rats [3]; 1129 ppm (calculated)): no symptoms"
CC(=O)CO [acetol],–,2200,lethality on exposure (rats [5]): nonlethal
